Laboratory results as given in patent US11129819B2, “Fumarate analogs and uses thereof” (Rigel Pharmaceuticals, Inc., priority 2014, dated 2021).
pEC50: −log10 of the molar value. Counter-ions that a name gives are not always drawn. Like-named read-outs stand apart in the source and are kept apart here.

Experiments:
[1] = tested on: NrF2 (Nuclear factor (erythroid-derived 2)-like 2); test: NrF2 activation in a whole cell nuclear translocation assay; type: cell-based
Procedure: NrF2 Activation in a Whole Cell Nuclear Translocation Assay Compounds were tested in a NrF2 (Nuclear factor (erythroid-derived 2)-like 2) translocation assay by adapting the methods set forth in U.S. Pat. No. 8,101,373, the disclosure of which is incorporated herein by reference.

[2] = tested on: experimental autoimmune encephalomyelitis (EAE); test: Autoimmune encephalitis (EAE) in vivo assay in mice; design: species or system C57BL/6 mice; details: dosed at 60 mg/kg beginning on the day of immunization
[3] = read-out: NrF2 translocation assay EC50
[4] = reference fumarates, read-out: NrF2 activation EC50

| Compound | pEC50 [1, 3] | also measured |
| --- | --- | --- |
| COC(=O)/C=C/n1nnn(CC(=O)OC)c1=O [Compound 14, methyl (E)-3-(4-(2-methoxy-2-oxoethyl)-5-oxo-4,5-dihydro-1H-tetrazol-1-yl)acrylate] | 5.17 | – |
| COC(=O)/C=C/n1nnn(-c2ccccc2)c1=O [Compound 16, methyl (E)-3-(5-oxo-4-phenyl-4,5-dihydro-1H-tetrazol-1-yl)acrylate] | 6.00 | – |
| COC(=O)/C=C/n1nn[nH]c1=O [Compound 1, methyl (E)-3-(5-oxo-4,5-dihydro-1H-tetrazol-1-yl)acrylate] | 4.21 | onset of disease paralysis ([2]; 60 mg/kg): significantly prevented the onset of disease paralysis; onset of disease paralysis ([2]; listed as compound 1, 60 mg/kg): significantly prevents the onset of disease paralysis |
| COC(=O)/C=C/n1nnn(C(=O)N(C)C)c1=O [Compound 10, Methyl (E)-3-(4-(dimethylcarbamoyl)-5-oxo-4,5-dihydro-1H-tetrazol-1-yl)acrylate] | 5.21 | – |
| COC(=O)/C=C/C(=O)OC [dimethyl fumarate, reference compound] | – | pEC50 [1, 4]: ~5.10 |
| COC(=O)/C=C/n1nnn(/C=C/C(=O)OC)c1=O [Compound 20, dimethyl 3,3′-(5-oxo-1H-tetrazole-1,4(5H)-diyl)(2E,2′E)-diacrylate] | 6.15 | – |
| COC(=O)/C=C/C(=O)O [Monomethyl fumarate, monomethyl fumarate, reference compound] | – | pEC50 [1, 4]: ~3.90 |

Now from value to molecule, other results behind:

| pEC50 [1, 3] | Compound | also measured |
| --- | --- | --- |
| 4.98 | COC(=O)/C=C/n1nnn(C2CCOCC2)c1=O [Compound 12, methyl (E)-3-(5-oxo-4-(tetrahydro-2H-pyran-4-yl)-4,5-dihydro-1H-tetrazol-1-yl)acrylate] | – |
| 5.11 | COC(=O)/C=C/n1nnn(C(C)C)c1=O [Compound 6, methyl (E)-3-(4-isopropyl-5-oxo-4,5-dihydro-1H-tetrazol-1-yl)acrylate] | – |
| 5.27 | COC(=O)/C=C/n1nnn(C2CCCC2)c1=O [Compound 11, methyl (E)-3-(4-cyclopentyl-5-oxo-4,5-dihydro-1H-tetrazol-1-yl)acrylate] | – |
| 5.14 | COC(=O)/C=C/n1nnn(C2CC2)c1=O [Compound 21, methyl (E)-3-(4-cyclopropyl-5-oxo-4,5-dihydro-1H-tetrazol-1-yl)acrylate] | – |
